# Target: USP1 (Homo sapiens, UniProt O94782)
# Assay: Biochemical Assay for USP1 Inhibition (Ub-Rho 110 fluorescence)
# Details: Table 5; 30 min preincubation, Enzyme 0.025 nM, Substrate Ub-Rho 110 25 nM; read-out: IC50 (μm)
# Experimental: The assay was performed in a final volume of 6 μL in assay buffer containing 20 mM Tris-HCl pH 8.0, (1 M Tris-HCl, pH 8.0 solution; Corning 46-031-CM), 1 mM GSH (L-glutathione reduced, Sigma-Aldrich, G4251-100G), 0.03% BGG (0.22 μM filtered, Sigma, G7516-25G), and 0.01% Triton X-100 (Sigma, T9284-10L). Nanoliter quantities of 10-point, 3-fold serial dilution in DMSO were pre-dispensed into 1536 assay plates (Corning, #3724BC) for a final test concentration of 25 μM to 1.3 nM, top to lowest dose, respectively. Concentration and incubation times were optimized for the maximal signal-to-background while maintaining initial velocity conditions at a fixed substrate concentration (<<Km). 3 μL of 2× Enzyme was added to assay plates (pre-stamped with compound), preincubated for 30 min, and then treated with 3 μL of 2× Substrate (Ub-Rho 110, UbiQ-126). Final concentrations of Enzyme and Substrate are 0.025 nM and 25 nM, respectively. Plates were read using a kinetic protocol continuously for 11 min on the Envision (Perkin Elmer) or PheraSTAR (BMG), excitation at 485 nm and emission at 535 nm or excitation at 520 nm and emission at 590 nm. For all assay formats, data were reported as percent inhibition compared with control wells based on the following equation: % inh=100*([…]), where FLU=measured Fluorescence, AveLow=average Fluorescence of no enzyme control (n=32), and AveHigh=average Fluorescence of DMSO control (n=32). IC50 values were determined by curve fitting of the standard 4 parameter logistic fitting algorithm included in the Activity Base software package: TDBS XE Designer Model205. Data is fitted using the Levenburg Marquardt algorithm.
# In Table 5, absolute stereochemistry has not been determined for some Compounds. Accordingly, assignment ofany Compounds as the “R” or “S” stereoisomer is arbitrary, unless otherwise noted. In some cases, Compounds are labeled with “1st eluting isomer”, “2nd eluting isomer”, etc. based on the purification method used to separate the stereoisomers.
# Sequence of USP1 (O94782 whole entry): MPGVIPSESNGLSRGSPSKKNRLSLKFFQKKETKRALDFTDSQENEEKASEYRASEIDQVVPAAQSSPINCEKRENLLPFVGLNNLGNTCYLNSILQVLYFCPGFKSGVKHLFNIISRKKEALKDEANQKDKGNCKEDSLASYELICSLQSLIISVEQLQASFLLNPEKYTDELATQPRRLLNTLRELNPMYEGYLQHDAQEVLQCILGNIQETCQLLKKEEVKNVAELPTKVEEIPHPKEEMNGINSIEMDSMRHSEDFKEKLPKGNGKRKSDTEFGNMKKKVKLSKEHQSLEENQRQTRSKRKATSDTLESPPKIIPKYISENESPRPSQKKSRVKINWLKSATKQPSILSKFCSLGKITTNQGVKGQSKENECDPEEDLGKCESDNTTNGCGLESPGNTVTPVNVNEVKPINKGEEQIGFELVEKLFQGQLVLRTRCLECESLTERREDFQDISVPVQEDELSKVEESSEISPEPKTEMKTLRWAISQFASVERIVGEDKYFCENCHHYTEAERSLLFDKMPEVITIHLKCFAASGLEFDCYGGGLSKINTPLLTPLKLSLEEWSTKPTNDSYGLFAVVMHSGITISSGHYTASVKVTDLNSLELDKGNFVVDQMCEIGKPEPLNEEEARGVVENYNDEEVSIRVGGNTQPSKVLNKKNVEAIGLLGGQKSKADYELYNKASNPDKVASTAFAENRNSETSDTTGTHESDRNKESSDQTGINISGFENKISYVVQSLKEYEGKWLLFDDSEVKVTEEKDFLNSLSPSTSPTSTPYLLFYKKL
# Sequence of USP1 (Q8TAF3 whole entry partner): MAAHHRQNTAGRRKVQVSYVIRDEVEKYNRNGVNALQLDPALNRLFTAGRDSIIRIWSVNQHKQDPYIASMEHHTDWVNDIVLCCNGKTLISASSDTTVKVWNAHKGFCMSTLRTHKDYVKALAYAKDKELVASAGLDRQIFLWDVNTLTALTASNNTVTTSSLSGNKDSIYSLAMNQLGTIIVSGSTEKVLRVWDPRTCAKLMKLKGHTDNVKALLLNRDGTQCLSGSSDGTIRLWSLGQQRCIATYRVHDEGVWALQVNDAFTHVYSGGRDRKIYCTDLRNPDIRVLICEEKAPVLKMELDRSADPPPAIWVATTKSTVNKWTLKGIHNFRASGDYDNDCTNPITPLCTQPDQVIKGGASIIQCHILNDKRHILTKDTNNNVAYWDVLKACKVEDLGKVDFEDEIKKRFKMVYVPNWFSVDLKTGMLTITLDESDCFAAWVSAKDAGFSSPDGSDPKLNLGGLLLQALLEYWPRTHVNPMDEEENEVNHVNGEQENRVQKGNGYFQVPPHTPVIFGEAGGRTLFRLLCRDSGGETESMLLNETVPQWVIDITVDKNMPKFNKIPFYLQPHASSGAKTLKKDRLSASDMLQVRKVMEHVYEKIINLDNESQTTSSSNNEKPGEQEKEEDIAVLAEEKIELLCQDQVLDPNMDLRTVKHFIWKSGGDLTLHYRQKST
row,Structure (SMILES),IC50
1,"Cc1nc(-c2cccnc2C(C)C)c2n1CCN(c1cnccn1)C2 [Compound 11, 2-{3-methyl-1-[2-(propan-2-yl)pyridin-3-yl]-5H,6H,7H,8H-imidazo[1,5-a]pyrazin-7-yl}pyrazine]",> 25 µM
2,"Cc1nc(-c2cccnc2C(C)C)c2n1CCN(c1ccc(-c3nc(C(F)(F)F)cn3C3CC3)cc1)C2 [Compound 76, 3-(7-{4-[1-cyclopropyl-4-(trifluoromethyl)-1H-imidazol-2-yl]phenyl}-3-methyl-5H,6H,7H,8H-imidazo[1,5-a]pyrazin-1-yl)-2-(propan-2-yl)pyridine]",≤ 1 µM
3,"Cc1nc(-c2cccnc2C(C)C)c2n1CCN(c1ccc(N(C)C)cc1)C2 [Compound 18, N,N-dimethyl-4-{3-methyl-1-[2-(propan-2-yl)pyridin-3-yl]-5H,6H,7H,8H-imidazo[1,5-a]pyrazin-7-yl}aniline]",> 25 µM
4,"Cc1ccn(-c2ccc(N3CCn4c(C)nc(-c5cccnc5C(C)C)c4C3)cc2)n1 [Compound 31, 3-{3-methyl-7-[4-(3-methyl-1H-pyrazol-1-yl)phenyl]-5H,6H,7H,8H-imidazo[1,5-a]pyrazin-1-yl}-2-(propan-2-yl)pyridine]",≤ 1 µM
5,"Cc1nc(-c2cccnc2C(C)C)c2n1CCN(c1ccc(-c3nc(CO)co3)cc1)C2 [Compound 64, [2-(4-{3-methyl-1-[2-(propan-2-yl)pyridin-3-yl]-5H,6H,7H,8H-imidazo[1,5-a]pyrazin-7-yl}phenyl)-1,3-oxazol-4-yl]methanol]",10 to 25 µM
6,"Cc1nc(-c2cccnc2C(C)C)c2n1CCN(c1ccc(-c3cnn(C4COC4)c3)cc1)C2 [Compound 71, 3-(3-methyl-7-{4-[1-(oxetan-3-yl)-1H-pyrazol-4-yl]phenyl}-5H,6H,7H,8H-imidazo[1,5-a]pyrazin-1-yl)-2-(propan-2-yl)pyridine]",> 25 µM
7,"Cc1nc(-c2cccnc2C(C)C)c2n1CCN(c1ccc(-n3cccn3)cc1)C2 [Compound 9, 3-{3-methyl-7-[4-(1H-pyrazol-1-yl)phenyl]-5H,6H,7H,8H-imidazo[1,5-a]pyrazin-1-yl}-2-(propan-2-yl)pyridine]",1 to 10 µM
8,"Cc1nc(-c2cccnc2C(C)C)c2n1CC(C)N(c1ccc(-c3nc(C(F)(F)F)cn3C)cc1)C2 (single isomer, unassigned) [Compound 8-1, 3-[3,6-dimethyl-7-{4-[1-methyl-4-(trifluoromethyl)-1H-imidazol-2-yl]phenyl}-5H,6H,7H,8H-imidazo[1,5-a]pyrazin-1-yl]-2-(propan-2-yl)pyridine]",≤ 1 µM
9,"CNC(=O)c1ccc(N2CCn3c(C)nc(-c4cccnc4C(C)C)c3C2)c(F)c1 [Compound 48, 3-fluoro-N-methyl-4-{3-methyl-1-[2-(propan-2-yl)pyridin-3-yl]-5H,6H,7H,8H-imidazo[1,5-a]pyrazin-7-yl}benzamide]",> 25 µM
10,"Cc1nc(-c2cccnc2C(C)C)c2n1CCN(c1ccc(-n3cnnc3)cc1)C2 [Compound 42, 3-{3-methyl-7-[4-(4H-1,2,4-triazol-4-yl)phenyl]-5H,6H,7H,8H-imidazo[1,5-a]pyrazin-1-yl}-2-(propan-2-yl)pyridine]",> 25 µM
11,"Cc1nc(-c2cccnc2C(C)C)c2n1CCN(c1ccc(-c3nc(C(F)(F)F)cn3C3COC3)cc1)C2 [Compound 25, 3-(3-methyl-7-{4-[1-(oxetan-3-yl)-4-(trifluoromethyl)-1H-imidazol-2-yl]phenyl}-5H,6H,7H,8H-imidazo[1,5-a]pyrazin-1-yl)-2-(propan-2-yl)pyridine]",≤ 1 µM
12,"Cc1nc(-c2cccnc2C(C)C)c2n1CCN(c1ccc(N3CCC(O)C3)cc1)C2 (stereo not shown) [Compound 36, 1-(4-{3-methyl-1-[2-(propan-2-yl)pyridin-3-yl]-5H,6H,7H,8H-imidazo[1,5-a]pyrazin-7-yl}phenyl)pyrrolidin-3-ol]",10 to 25 µM
13,"Cc1nc(-c2cccnc2C(C)C)c2n1CCN(c1ccc(C#N)cc1)C2 [Compound 6, 4-{3-methyl-1-[2-(propan-2-yl)pyridin-3-yl]-5H,6H,7H,8H-imidazo[1,5-a]pyrazin-7-yl}benzonitrile]",> 25 µM
14,"Cc1nc(-c2cccnc2C(C)C)c2n1CCN(c1ccc(C(=O)NCC3CC3)cc1)C2 [Compound 57, N-(cyclopropylmethyl)-4-{3-methyl-1-[2-(propan-2-yl)pyridin-3-yl]-5H,6H,7H,8H-imidazo[1,5-a]pyrazin-7-yl}benzamide]",> 25 µM
15,"Cc1ccc(N2CCn3c(C)nc(-c4cccnc4C(C)C)c3C2)cc1 [Compound 21, 3-[3-methyl-7-(4-methylphenyl)-5H,6H,7H,8H-imidazo[1,5-a]pyrazin-1-yl]-2-(propan-2-yl)pyridine]",10 to 25 µM
16,"Cc1nc(-c2cccnc2C(C)C)c2n1CCN(c1ccc(N3CCCCC3=O)cc1)C2 [Compound 38, 1-(4-{3-methyl-1-[2-(propan-2-yl)pyridin-3-yl]-5H,6H,7H,8H-imidazo[1,5-a]pyrazin-7-yl}phenyl)piperidin-2-one]",> 25 µM
17,"Cc1cc(N2CCn3c(C)nc(-c4cccnc4C(C)C)c3C2)ccc1N1CCCC1=O [Compound 35, 1-(2-methyl-4-{3-methyl-1-[2-(propan-2-yl)pyridin-3-yl]-5H,6H,7H,8H-imidazo[1,5-a]pyrazin-7-yl}phenyl)pyrrolidin-2-one]",> 25 µM
18,"COc1nc(-c2cccnc2C(C)C)c2n1CCN(c1ccc(-c3nc(C(F)(F)F)cn3C)cc1)C2 [Compound 84, 3-(3-methoxy-7-{4-[1-methyl-4-(trifluoromethyl)-1H-imidazol-2-yl]phenyl}-5H,6H,7H,8H-imidazo[1,5-a]pyrazin-1-yl)-2-(propan-2-yl)pyridine]",≤ 1 µM
19,"Cc1nc(-c2cccnc2OC(F)F)c2n1CCN(c1ccc(-c3nc(C(F)(F)F)cn3C)cc1)C2 [Compound 15, 2-(difluoromethoxy)-3-(3-methyl-7-{4-[1-methyl-4-(trifluoromethyl)-1H-imidazol-2-yl]phenyl}-5H,6H,7H,8H-imidazo[1,5-a]pyrazin-1-yl)pyridine]",≤ 1 µM
20,"Cc1nc(-c2cccnc2C(C)C)c2n1CCN(c1ccc(N3CCOCC3)cc1)C2 [Compound 30, 4-(4-{3-methyl-1-[2-(propan-2-yl)pyridin-3-yl]-5H,6H,7H,8H-imidazo[1,5-a]pyrazin-7-yl}phenyl)morpholine]",> 25 µM
21,"Cc1nc(-c2cccnc2C(C)C)c2n1CCN(c1ccc(-c3nc(C(F)(F)F)cn3C)cn1)C2C (stereo not shown) [Compound 86, 2-[3,8-dimethyl-1-[2-(propan-2-yl)pyridin-3-yl]-5H,6H,7H,8H-imidazo[1,5-a]pyrazin-7-yl]-5-[1-methyl-4-(trifluoromethyl)-1H-imidazol-2-yl]pyridine]",≤ 1 µM
22,"Cc1nc(-c2cccnc2C(C)C)c2n1CCN(c1ccc(-c3nccn3C)cc1)C2 [Compound 14, 3-{3-methyl-7-[4-(1-methyl-1H-imidazol-2-yl)phenyl]-5H,6H,7H,8H-imidazo[1,5-a]pyrazin-1-yl}-2-(propan-2-yl)pyridine]",1 to 10 µM
23,"Cc1nc(-c2cccnc2OC(F)F)c2n1CCN(c1ccc(-n3ccc(C(F)(F)F)n3)cc1)C2 [Compound 78, 2-(difluoromethoxy)-3-(3-methyl-7-{4-[3-(trifluoromethyl)-1H-pyrazol-1-yl]phenyl}-5H,6H,7H,8H-imidazo[1,5-a]pyrazin-1-yl)pyridine]",≤ 1 µM
24,"Cc1nc(-c2cccnc2C(C)C)c2n1CCN(c1ccc(-c3nc(Cl)cn3C)cc1)C2 [Compound 68, 3-{7-[4-(4-chloro-1-methyl-1H-imidazol-2-yl)phenyl]-3-methyl-5H,6H,7H,8H-imidazo[1,5-a]pyrazin-1-yl}-2-(propan-2-yl)pyridine]",≤ 1 µM
25,"Cc1nc(-c2cccnc2C(C)C)c2n1CCN(c1ccc(C(=O)N3CCC[C@H]3C)cc1)C2 [Compound 54-1, 3-(3-methyl-7-{4-[(2R)-2-methylpyrrolidine-1-carbonyl]phenyl}-5H,6H,7H,8H-imidazo[1,5-a]pyrazin-1-yl)-2-(propan-2-yl)pyridine]",10 to 25 µM
26,"CC(C)c1ncccc1-c1nc(C2CC2)n2c1CN(c1ccc(-c3nc(C(F)(F)F)cn3C)cc1)CC2 [Compound 24, 3-(3-cyclopropyl-7-{4-[1-methyl-4-(trifluoromethyl)-1H-imidazol-2-yl]phenyl}-5H,6H,7H,8H-imidazo[1,5-a]pyrazin-1-yl)-2-(propan-2-yl)pyridine]",≤ 1 µM
27,"Cc1nc(-c2cccnc2C(C)C)c2n1CCN(c1ccc(-n3ccnn3)cc1)C2 [Compound 33, 3-{3-methyl-7-[4-(1H-1,2,3-triazol-1-yl)phenyl]-5H,6H,7H,8H-imidazo[1,5-a]pyrazin-1-yl}-2-(propan-2-yl)pyridine]",10 to 25 µM
28,"Cc1nc(-c2cccnc2C(C)C)c2n1CCN(c1ccc(C3=CCON3)cc1)C2 [Compound 32, 3-{7-[4-(2,5-dihydro-1,2-oxazol-3-yl)phenyl]-3-methyl-5H,6H,7H,8H-imidazo[1,5-a]pyrazin-1-yl}-2-(propan-2-yl)pyridine]",1 to 10 µM

# Reference: patent publication US20220073525A1, “COMPOSITIONS FOR INHIBITING UBIQUITIN SPECIFIC PROTEASE 1” (FORMA Therapeutics, Inc., priority 2019, published 2022)
